What all share (type): cell-based
One data set deals with RBL-2H3. Nature of the data set: Cytotoxicity against rat RBL2H3 mast cells at 100 uM by CCK8 cell viability assay. Particulars: rbl-2h3, 100 µM. On the technique in general: Formazan colour is commonly taken as a measure of viable cells.
The species entered for data set [1] is Rattus norvegicus. The experiment in a line: Inhibition of thapsigargin activated calcium-release activated channel in rat RBL2H3 mast cells assessed as decrease in calcium influx at 100 uM by Fluo-4NW calcium assay.
Data set [2] in a line: Inhibition of thapsigargin activated calcium-release activated channel in rat RBL2H3 mast cells assessed as decrease in calcium influx by Fluo-4NW calcium assay. Particulars: for pIC50: Rattus norvegicus, RBL-2H3, read-out: IC50.
Data set [3] is filed under the species Rattus norvegicus. Nature of the data set: (§1) Inhibition of thapsigargin activated calcium-release activated channel in rat RBL2H3 mast cells assessed as decrease in TNFalpha secretion measured 4 hrs after extracellular calcium exposure by ELISA. For orientation: In an ELISA, binding on a coated surface is turned into a signal by an enzyme label.
The species entered for data set [4] is Rattus norvegicus. The experiment in a line: (§2) Inhibition of thapsigargin activated calcium-release activated channel in rat RBL2H3 mast cells assessed as decrease in nuclear translocation of NFAT-c1 measured 30 mins after extracellular calcium exposure by ELISA.
A short description of data set [5]: as §2. Particulars: RBL-2H3, 0.5 h.
For data set [6], the species on record is Rattus norvegicus. Nature of the data set: (§3) Inhibition of thapsigargin activated calcium-release activated channel in rat RBL2H3 mast cells assessed as decrease in release of beta-hexosaminidase preincubated for 30 mins followed by extracellular calcium addition by ELISA method.
Data set [7] can be described thus: as §3. Particulars: RBL-2H3.
Data set [8] is filed under the species Rattus norvegicus. The experiment in a line: Inhibition of thapsigargin activated calcium-release activated channel in rat RBL2H3 mast cells assessed as decrease in calcium influx at 10 to 100 uM by Fluo-4NW calcium assay.
Data set [9] is filed under the species Rattus norvegicus. Nature of the data set: Inhibition of thapsigargin activated calcium-release activated channel in rat RBL2H3 mast cells assessed as decrease in calcium influx at 30 uM by Fluo-4NW calcium assay.
Data set [10] can be described thus: as §1. Particulars: RBL-2H3, 4 h.

The text below walks through data of ChEMBL document CHEMBL4002603, “Structure-activity relationship study and discovery of indazole 3-carboxamides as calcium-release activated calcium channel blockers” (Bioorg Med Chem Lett, 2017).

pEC50, pIC50: −log10 of the molar value. Activity calls are given as the source filed them. The calls are words filed in the database; no cut-off is given here.

As usually defined, the inhibition is the percentage by which the read-out fell short of the control. As usually defined, the pIC50 is the IC50 on a negative log10 scale, so that one unit is a factor of ten. As a reminder, the pEC50 is the EC50 on a negative log10 scale, so that one unit is a factor of ten.

As to `O=C(Nc1cnns1)c1nn(Cc2ccc(Cl)cc2Cl)c2ccccc12`, in the data set with RBL-2H3, the Activity entry is on record as “Non-Toxic”. Further, the inhibition in the data set filed under Rattus norvegicus [1] is less than 50%.

`O=C(Nc1nn(Cc2ccc(Cl)cc2Cl)c2ccccc12)c1ccc(F)cc1F`: the Activity entry with RBL-2H3 is listed as “Non-Toxic”. The inhibition in the data set listed under Rattus norvegicus [1] is less than 50%.

`Cc1cc(NC(=O)c2nn(Cc3ccc(Cl)cc3Cl)c3c2CCC3)ccn1`: the Activity entry in the data set with RBL-2H3 is reported as “Non-Toxic”. Also, the pIC50 in [2] is less than 4.52.

Regarding `O=C(Nc1ccnc(F)c1)c1nn(Cc2ccc(Cl)cc2Cl)c2ccccc12`, the inhibition result in the data set listed under Rattus norvegicus [3], in the data set filed under Rattus norvegicus [4] and in the data set listed under Rattus norvegicus [6] was “Dose-dependent effect” in each case. Also, the pIC50 in data set [5] was 5.80; in data set [2], 6.17. Moreover, in [7], the negative-log EC50 (pEC50) was 6.07. For the same molecule, the inhibition entry in the data set filed under Rattus norvegicus [8] was “Active”. For the same molecule, the Activity result in the data set on RBL-2H3 is given as “Non-Toxic”.

Turning to `O=C(Nc1ccnc(F)c1)c1nn(Cc2ccc(Cl)cc2Cl)c2c1CCC2`, in the data set on RBL-2H3, the Activity entry is recorded as “Non-Toxic”. Also, in data set [2], the negative logarithm of the IC50 (pIC50) was 6.00.

As to `O=C(Nc1ccc(F)cc1F)c1nn(Cc2ccc(Cl)cc2Cl)c2ccccc12`, the inhibition result in the data set listed under Rattus norvegicus [8] was “Active”. The Activity result in the data set with RBL-2H3 is on record as “Non-Toxic”. Further, in [2], the negative logarithm of the IC50 (pIC50) is 5.63.

As to `O=C(Nc1cc(F)nc(F)c1)c1nn(Cc2ccc(Cl)cc2Cl)c2c1CCCC2`, the Activity result with RBL-2H3 is given as “Non-Toxic”. Moreover, the pIC50 in data set [2] is 5.87.

Consider `O=C(Nc1cc(F)nc(F)c1)c1nn(Cc2ccc(Cl)cc2Cl)c2c1CCC2`, for which, in the data set on RBL-2H3, the Activity result is on record as “Non-Toxic”. Besides, in [2], the negative logarithm of the IC50 (pIC50) was 6.19.

Turning to `O=C(Nc1nn(Cc2ccc(Cl)cc2Cl)c2ccccc12)c1c(F)cccc1F`, the Activity entry in the data set on RBL-2H3 is given as “Non-Toxic”. In the data set filed under Rattus norvegicus [1], the inhibition was less than 50%.

Turning to `Cc1nnsc1C(=O)Nc1nn(Cc2ccc(Cl)cc2Cl)c2ccccc12`, in the data set filed under Rattus norvegicus [9], the inhibition lay within 44 to 48%. In addition, in the data set with RBL-2H3, the Activity entry is given as “Non-Toxic”. Moreover, the negative logarithm of the IC50 (pIC50) in [2] was less than 4.52.

Turning to `O=C(Nc1nn(Cc2ccc(Cl)cc2Cl)c2ccccc12)c1cc(F)nc(F)c1`, in the data set on RBL-2H3, the Activity entry is given as “Non-Toxic”. In the data set listed under Rattus norvegicus [1], the inhibition is less than 50%.

As to `Cc1cc(NC(=O)c2nn(Cc3ccc(Cl)cc3Cl)c3ccccc23)ccn1`, the Activity entry in the data set with RBL-2H3 is given as “Non-Toxic”. Moreover, the inhibition in the data set filed under Rattus norvegicus [1] is less than 50%.

In the case of `O=C(Nc1cc(F)nc(F)c1)c1nn(Cc2ccc(Cl)cc2Cl)c2ccccc12`, the inhibition in the data set listed under Rattus norvegicus [9] is 46%. The Activity result in the data set on RBL-2H3 is reported as “Non-Toxic”. Further, the pIC50 in data set [2] is less than 4.52.

As for `O=C(Nc1ccnc(F)c1)c1nn(Cc2ccc(Cl)cc2Cl)c2c1CCCC2`, in the data set on RBL-2H3, the Activity entry is listed as “Non-Toxic”. Further, the pIC50 in data set [2] is 5.82.

Regarding `O=C(Nc1nn(Cc2ccc(Cl)cc2Cl)c2ccccc12)c1ccccc1F`, in the data set listed under Rattus norvegicus [8], the inhibition entry is “Active”. The Activity entry in the data set on RBL-2H3 is “Non-Toxic”. The negative-log IC50 (pIC50) in [2] was 4.54.

In the case of `O=C(Nc1cc(F)nc(F)c1)c1nn(Cc2ccc(Cl)cc2Cl)c2c1CCCCC2`, the Activity entry with RBL-2H3 was “Non-Toxic”. Further, the pIC50 in [2] is 4.89.

On to `O=C(Nc1ccccc1F)c1nn(Cc2ccc(Cl)cc2Cl)c2ccccc12`, for which the inhibition entry in the data set filed under Rattus norvegicus [3] is “Dose-dependent effect”; in the data set filed under Rattus norvegicus [9], 44 to 48%. Also, the negative logarithm of the IC50 (pIC50) in data set [10] is 6.55; in [2] it was less than 4.52. Also, the Activity entry with RBL-2H3 is “Non-Toxic”.

Consider `Cc1cc(NC(=O)c2nn(Cc3ccc(Cl)cc3Cl)c3c2CCCC3)ccn1`, for which the Activity result in the data set with RBL-2H3 is recorded as “Non-Toxic”. In addition, the IC50 entry in data set [2] is “Nd(Insoluble)”.

Take `Cc1cc(C(=O)Nc2nn(Cc3ccc(Cl)cc3Cl)c3ccccc23)ccn1`: the inhibition in the data set listed under Rattus norvegicus [9] lay in the range of 44 to 48%. Moreover, the Activity entry with RBL-2H3 was “Non-Toxic”. Further, the pIC50 in data set [2] was less than 4.52.

`O=C(Nc1c(F)cccc1F)c1nn(Cc2ccc(Cl)cc2Cl)c2ccccc12`: in the data set filed under Rattus norvegicus [3], the inhibition entry is “Dose-dependent effect”. Moreover, the pIC50 was 6.33 in [10] and 5.82 in [2]. The inhibition entry in the data set listed under Rattus norvegicus [8] is “Active”. Moreover, the Activity entry with RBL-2H3 is reported as “Non-Toxic”.

As to `O=C(Nc1c(F)cccc1Cl)c1nn(Cc2ccc(Cl)cc2Cl)c2ccccc12`, the inhibition result in the data set filed under Rattus norvegicus [3] is “Dose-dependent effect”. Besides, the figures for the pIC50 in data set [10] and in data set [2] were 6.13 and 5.49, respectively. Moreover, the inhibition entry in the data set listed under Rattus norvegicus [8] was “Active”. Besides, the Activity entry in the data set with RBL-2H3 was “Non-Toxic”.

For `Cc1cc(NC(=O)c2nn(Cc3ccc(Cl)cc3Cl)c3c2CCCCC3)ccn1`, in the data set on RBL-2H3, the Activity result is “Non-Toxic”. The pIC50 in data set [2] was less than 4.52.

Turning to `O=C(Nc1ccnc(F)c1)c1nn(Cc2ccc(Cl)cc2Cl)c2c1CCCCC2`, the Activity entry with RBL-2H3 was “Non-Toxic”. Besides, the IC50 entry in [2] is listed as “Nd(Insoluble)”.

Take `O=C(Nc1nn(Cc2ccc(Cl)cc2Cl)c2ccccc12)c1ccnc(F)c1`: in the data set on RBL-2H3, the Activity entry is reported as “Non-Toxic”. The inhibition in the data set listed under Rattus norvegicus [1] is less than 50%.
